Source: patent EP1614683B1, “Indazole compounds and pharmaceutical compositions for inhibiting protein kinases, and methods for their use” (priority 1999, dated 2001)
pIC50: −log10 of the molar value. Read-outs that look alike come from different tables or passages of the source.

Experiments:
human FGF-R1 = human FGF-R1 (Homo sapiens, UniProt P11362, C488A/C584S/L457V); assay: FGF-R spectrophotometric assay; format: biochemical; details: read-out: FGF-P* (% inhibition)
Method: The spectrophotometric assay was carried out as described above for VEGF-R2, except for the following changes in concentration: FGF-R = 50 nM, ATP = 2 mM, and poly(E4Y1) =15 mM.

LCK tyrosine kinase = LCK tyrosine kinase (Homo sapiens, UniProt P06239, C224D/P223M); assay: LCK spectrophotometric assay; format: biochemical; details: Table 1; compound concentration 1 µM; read-out: Lck-P* (% inhibition)
Sequence of LCK tyrosine kinase (P06239 223-509 P223M/C224D): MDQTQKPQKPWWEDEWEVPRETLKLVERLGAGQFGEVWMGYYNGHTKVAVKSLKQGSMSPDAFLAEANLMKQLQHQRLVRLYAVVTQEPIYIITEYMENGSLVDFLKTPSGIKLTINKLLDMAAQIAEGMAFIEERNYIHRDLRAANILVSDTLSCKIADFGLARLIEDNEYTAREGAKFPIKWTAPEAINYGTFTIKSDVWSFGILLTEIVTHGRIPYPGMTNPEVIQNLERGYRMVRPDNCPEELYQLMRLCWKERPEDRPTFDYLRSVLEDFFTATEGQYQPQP
Method: The spectrophotometric assay was carried out as described above for VEGF-R2, except for the following changes in concentration: LCK = 60 nM, MgCl2 = 0 mM, poly(E4Y1) = 20 mM.

[1] = target: unphosphorylated VEGF-R2Δ50 (Homo sapiens, UniProt P35968, DEL940-989/E990V); assay: biochemical; details: for inhibition at 0.05 µM: read-out: FLVK ** (% inhibition)
Sequence of unphosphorylated VEGF-R2Δ50 (P35968 with tags, fused parts or gaps DEL940-989/E990V limits assumed): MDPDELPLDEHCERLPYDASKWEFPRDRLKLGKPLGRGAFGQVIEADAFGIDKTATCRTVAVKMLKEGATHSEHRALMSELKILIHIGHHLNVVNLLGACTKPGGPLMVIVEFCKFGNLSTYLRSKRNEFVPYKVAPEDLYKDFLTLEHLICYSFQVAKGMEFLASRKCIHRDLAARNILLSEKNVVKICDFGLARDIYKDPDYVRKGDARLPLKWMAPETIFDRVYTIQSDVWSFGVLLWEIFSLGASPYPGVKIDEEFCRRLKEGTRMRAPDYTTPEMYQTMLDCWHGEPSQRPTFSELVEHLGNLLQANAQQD

[2] = tested on: human umbilical vein endothelial cells (HUVEC); assay: HUVEC proliferation assay (VEGF-stimulated, MTT); format: cell-based; details: Homo sapiens, HUVEC, Table 1; + albumin; read-out: HUVEC + albumin IC50
Method: This assay determines the ability of a test compound to inhibit the growth factor-stimulated proliferation of human umbilical vein endothelial cells ("HUVEC"). HUVEC cells (passage 3-4, Clonetics, Corp.) were thawed into EGM2 culture medium (Clonetics Corp) in T75 flasks. Fresh EGM2 medium was added to the flasks 24 hours later. Four or five days later, cells were exposed to another culture medium (F12K medium supplemented with 10% fetal bovine serum (FBS), 60 µg/mL endothelial cell growth supplement (ECGS), and 0.1 mg/mL heparin). Exponentially-growing HUVEC cells were used in experiments thereafter. Ten to twelve thousand HUVEC cells were plated in 96-well dishes in 100 µl of rich, culture medium (described above). The cells were allowed to attach for 24 hours in this medium. The medium was then removed by aspiration and 105 µl of starvation media (F12K+1% FBS) was added to each well. After 24 hours, 15 µl of test agent dissolved in 1% DMSO in starvation medium or this vehicle alone was added into each treatment well; the final DMSO concentration was 0.1%. One hour later, 30 µl of VEGF (30 ng/mL) in starvation media was added to all wells except those containing untreated controls; the final VEGF concentration was 6 ng/mL. Cellular proliferation was quantified 72 hours later by MTT dye reduction, at which time cells were exposed for 4 hours MTT (Promega Corp.).

[3] = Table 1, compound concentration 1 µM

Sequence of human FGF-R1 (P11362 456-766 L457V/C488A/C584S): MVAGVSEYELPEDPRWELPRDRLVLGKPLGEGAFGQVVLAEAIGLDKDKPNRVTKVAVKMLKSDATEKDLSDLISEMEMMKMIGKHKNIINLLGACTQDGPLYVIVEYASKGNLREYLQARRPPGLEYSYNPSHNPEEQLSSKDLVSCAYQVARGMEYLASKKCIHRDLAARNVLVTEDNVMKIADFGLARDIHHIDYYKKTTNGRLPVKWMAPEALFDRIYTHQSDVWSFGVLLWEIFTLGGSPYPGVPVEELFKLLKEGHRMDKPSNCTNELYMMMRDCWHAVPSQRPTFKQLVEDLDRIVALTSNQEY

Row | Structure (SMILES) | inhibition at 1 µM (human FGF-R1; [3]) [%] | inhibition at 1 µM (LCK tyrosine kinase) [%] | inhibition at 0.05 µM [1] [%] | pIC50 [2] | inhibition at 1 µM (human FGF-R1) [%] | inhibition at 1 µM ([1]; read-out: FLVK ** (% inhibition, cell marked *)) [%]
1 | O=C(N[C@@H]1C[C@H]1c1ccccc1)c1ccccc1Sc1ccc2c(/C=C/c3ccccn3)n[nH]c2c1 (racemic) [Reference Example 34] | 95 | 78 | 97 | 7.82 |  | 
2 | Cc1cc(C(=O)Nc2cc(Nc3ccc4c(/C=C/c5ccccn5)n[nH]c4c3)c(F)cc2C)n(C)n1 [Example 48(b), 6-[N-(5-((1,3-Dimethyl-1H-pyrazol-5-yl)carboxamido)-2-fluoro-4-methylphenyl)amino]-3-E-[2-(pyridin-2-yl)ethenyl]-1H-indazole] | 77 | 6 | 97 |  |  | 
3 | CC(C)NC(=O)c1ccccc1Sc1ccc2c(/C=C/c3ccccn3)n[nH]c2c1 [Reference Example 35(b), 6-[2-(i-Propylcarbamoyl)phenylsulfanyl]-3-E-[2-(pyridin-2-yl)ethenyl]-1H-indazole] | 59 | 12 | 49 | 7.46 |  | 
4 | O=C(NCCc1cccs1)c1ccccc1Sc1ccc2c(/C=C/c3ccccn3)n[nH]c2c1 [Reference Example 35(hh), 6-[2-(2-(Thien-2-yl)ethylcarbamoyl)phenylsulfanyl]-3-E-[2-(pyridin-2-yl)ethenyl]-1H-indazole] | 73 | 34 | 100 | 8.15 |  | 
5 | CN(O)C(=O)c1ccccc1Sc1ccc2c(/C=C/c3ccccn3)n[nH]c2c1 [Reference Example 35(o), 6-[2-(N-Hydroxy-N-methylcarbamoyl)phenylsufanyl]-3-E-[2-(pyridin-2-yl)ethenyl]-1H-indazole] | 44 | 17 | 39 |  |  | 
6 | O=C(NCc1ccncc1)c1ccccc1Sc1ccc2c(/C=C/c3ccccn3)n[nH]c2c1 [Reference Example 35(p), 6-[2-((Pyrid-4-yl)methylcarbamoyl)phenylsulfanyl]-3-E-[2-(pyridin-2-yl)ethenyl]-1H-indazole] | 11 | 5 | 62 |  |  | 
7 | Cc1ccccc1C(=O)NNC(=O)c1ccccc1Sc1ccc2c(/C=C/c3ccccn3)n[nH]c2c1 [Reference Example 35(q), 6-[2-((2-Methylphenylhydrazido)carbonyl)phenylsulfanyl]-3-E-[2-(pyridin-2-yl)ethenyl]-1H-indazole] | 51 | 42 | 92 | 7.74 |  | 
8 | Cn1ccnc1/C=N/NC(=O)c1ccccc1Sc1ccc2c(/C=C/c3ccccn3)n[nH]c2c1 [Reference Example 36(a)] | 38 | 19 | 87 | 7.72 |  | 
9 | O=C(N/N=C/c1ccccn1)c1ccccc1Sc1ccc2c(/C=C/c3ccccn3)n[nH]c2c1 [Reference Example 36(b)] | 43 | 22 | 85 |  |  | 
10 | O=C(N/N=C/C(F)(F)F)c1ccccc1Sc1ccc2c(/C=C/c3ccccn3)n[nH]c2c1 [Reference Example 36(c)] | 60 | 28 | 89 |  |  | 
11 | O=C(NC1CC1)c1cccc(F)c1Sc1ccc2c(/C=C/c3ccccn3)n[nH]c2c1 [Reference Example 37(b), 6-[6-Fluoro-2-(cyclopropylcarbamoyl)phenylsulfanyl]-3-E-[2-(pyridin-2-yl)ethenyl]-1H-indazole] | 36 | 8 | 48 | 7.00 to 7.52 |  | 
12 | CNC(=O)c1cccc(F)c1Sc1ccc2c(/C=C/c3ccccn3)n[nH]c2c1 [Reference Example 37(d), 6-[6-Fluoro-2-(methylcarbamoyl)phenylsulfanyl]-3-E-[2-(pyridin-2-yl)ethenyl]-1H-indazole] | 38 | 10 | 26 |  |  | 
13 | Cc1ccc(C(=O)c2ccc3c(/C=C/c4ccccn4)n[nH]c3c2)cc1N [Reference Example 40(b), 6-(3-Amino-4-methyl-benzoyl)-3-E-[2-(pyridin-2-yl)ethenyl]-1H-indazole] | 92 | 32 | 89 |  |  | 
14 | Cc1cc(C)c(C(=O)c2ccc3c(/C=C/c4ccccn4)n[nH]c3c2)cc1N [Reference Example 40(c), 6-(5-Amino-2,4-dimethyl-benzoyl)-3-E-[2-(pyridin-2-yl)ethenyl]-1H-indazole] | 59 | 28 | 24 |  |  | 
15 | O=C(Nc1cccc(C(=O)c2ccc3c(/C=C/c4ccccn4)n[nH]c3c2)c1)Oc1ccccc1 [Reference Example 41(cc), 6-[3-(phenoxyamido)benzoyl]-3-E-[2-(pyridin-2-yl)ethenyl]-1H-indazole] |  | 41 | 97 |  | 95 | 
16 | CC(=O)Nc1cc(C(=O)c2ccc3c(/C=C/c4ccccn4)n[nH]c3c2)ccc1C [Reference Example 41(gg), 6-(3-acetamido-4-methylbenzoyl)-3-E-[2-(pyridin-2-yl)ethenyl]-1H-indazole] |  | 27 | 84 | 8.02 |  | 
17 | Cc1cc(C(=O)Nc2cc(C(=O)c3ccc4c(/C=C/c5ccccn5)n[nH]c4c3)ccc2C)n(C)n1 [Reference Example 41(hh), 6-[3-((1,3-Dimethyl-1H-pyrazol-5-yl)carboxamido)-4-methylbenzoyl]-3-E-[2-(pyridin-2-yl)ethenyl]-1H-indazole] | 74 | 13 | 98 | 8.41 |  | 
18 | CCc1cc(C(=O)Nc2cc(C(=O)c3ccc4c(/C=C/c5ccccn5)n[nH]c4c3)ccc2C)n(C)n1 [Reference Example 41(jj), 6-[3-((3-Ethyl-1-methyl-1H-pyrazol-5-yl)carboxamido)-4. methylbenzoyl]-3-E-[2-(pyridin-2-yl)ethenyl]-1H-indazole] | 81 | 19 | 87 | 7.68 |  | 
19 | CC(=O)Nc1cc(C(=O)c2ccc3c(/C=C/c4ccccn4)n[nH]c3c2)c(C)cc1C [Reference Example 41(nn), 6-(5-acetamido-2,4-dimethylbenzoyl)-3-E-[2-(pyridin-2-yl)ethenyl]-1H-indazole] | 91 | 7 | 57 |  |  | 
20 | Cc1cc(C(=O)Nc2cccc(C(=O)c3ccc4c(/C=C/c5ccccn5)n[nH]c4c3)c2)cc(Cl)n1 [Reference Example 41(q), 6-[3-((2-chloro-6-methylpyridin-4-yl)carboxamido)benzoyl]-3-E-[2-(pyridin-2-yl)ethenyl]-1H-indazole] | 91 | 53 | 100 |  |  | 
21 | CCc1cc(C(=O)Nc2cccc(C(=O)c3ccc4c(/C=C/c5ccccn5)n[nH]c4c3)c2)n(C)n1 [Reference Example 41(v), 6-[3-((3-Ethyl-1-methyl-1H-pyrazol-5-yl)carboxamido)benzoyl]-3-E-[2-(pyridin-2-yl)ethenyl)-1H-indazole] | 68 | 52 |  | 7.92 |  | 68
22 | O=C(Nc1cccc(C(=O)c2ccc3c(/C=C/c4ccccn4)n[nH]c3c2)c1)c1ccnc(Cl)c1 [Reference Example 41(w), 6-[3-((2-chloropyridin-4-yl)carboxamido)benzoyl]-3-E-[2-(pyridin-2-yl)ethenyl]-1H-indazole] | 67 | 49 | 97 | ~8.00 |  | 
23 | Cc1cc(C(=O)Nc2cccc(C(=O)c3ccc4c(/C=C/c5ccccn5)n[nH]c4c3)c2)n(C(C)C)n1 [Reference Example 41(x), 6-[3-((1-Isopropyl-3-methyl-1H-pyrazol-5-yl)carboxamido)benzoyl]-3-E-[2-(pyridin-2-yl)ethenyl]-1H-indazole] |  | 66 | 98 | 8.34 |  | 
24 | CC(C)COC(=O)Nc1cccc(C(=O)c2ccc3c(/C=C/c4ccccn4)n[nH]c3c2)c1 [Reference Example 41(y)] | 86 | 61 | 98 | 7.00 to 7.52 |  | 
